Earlier results on seven molecules are cited in US8691198B2, “Environmentally benign plasticizers based on derivatives of acetone” (priority 2010, dated 2014).

Read-outs that look alike come from different tables or passages of the source.

For data set [1] the following is noted: degradation through oxidation forming phosphoric acid and the corresponding alcohols.

In the case of `OCC1(O)COC(O)(CO)CO1` (centres unmarked) [1,3-dihydroxyacetone dimer], the “LD50 (oral, rat)” value in the data set with rat (oral) is “sixty thousand”. Regarding `CCCC(=O)O` [Butyric acid], the “LD50(rat)” value in the data set on rat (left half of Table 1) is on record as 2940 mg/kg. Regarding `CCCCCC(=O)O` [Caproic acid], in the data set with rat (right half of Table 1), the “LD50(rat) ×” value is recorded as 3000 mg/kg. In the case of `CCCCCCCC(=O)O` [Caprylic acid], the “LD50(rat) ×” value with rat (in vivo) is listed as 600 mg/kg. Regarding `CC(CC(C)(C)C)CP(=O)(O)CC(C)CC(C)(C)C` (centres unmarked) [Cyanex 272, Bis-(2,4,4-trimethylpentyl) phosphinic acid, reference compound], the “LD50(rat)” value in the data set on rat is on record as 3500 mg/kg. The biodegradability result in data set [1] is “biodegradable”. On to `CCCCCCC(=O)O` [Heptanoic Acid], for which, in the data set on rat (right half of Table 1), the “LD50(rat) ×” value is 7000 mg/kg. Regarding `CCCCC(=O)O` [Pentanoic Acid], in the data set with rat (in vivo), the “LD50(rat)” value is 1844 mg/kg.
